# Measured values as given in patent publication US11365188B2, “JAK inhibitors” (priority 2018, dated 2022).
# Target: JAK1 (Homo sapiens, UniProt P23458)
# Assay: JAK Kinase Assay (JAK1, Caliper EZ Reader, fluoresceinated peptide)
# Assay type: biochemical
# Conditions: ATP 76.5 μM; JAK1 10 nM; 120 minutes at room temperature; read-out: JAK1 inhibition
# Experimental: JAK Kinase Assay 384-well plates in the left foot butoxy measured progress. The final assay volume was 25 μL, 250 nL 100× compounds, 10 μL enzyme mix and 15 μL substrate mix (fluoresceinated peptide and ATP) in assay buffer (20 mM HEPES (pH 7.5), 10 mM MgCl2, […], 0.5 mM EGTA and 2 mM DTT) prepared as test compound. By mixing the JAK1 with substrates and test compounds to start the reaction. There action mixture was incubated for 120 minutes at room temperature, then added 30 μL stop buffer for each sample to terminate the reaction with 50 mM EDTA. After termination of the kinase reaction, the proportion of phosphorylated product was determined as a fraction of total peptide substrate using Caliper EZ Reader II. Inhibition data were calculated by comparison with 100% of the reaction mixture without enzyme inhibition and vehicle-only reaction mixture billion % inhibition compared. The final concentration of reagents in the assays is: ATP, 76.5 μM; JAK1 fluorescent peptide (5-FAM-EEPLYWSFPAKKK-CONH2), 3 μM; JAK1, 10 nM, and DMSO, 1%. Dose response curve were generated to determine the concentration required for IC50 of JAK activity.
# Sequence of JAK1 (P23458 whole entry, species assumed): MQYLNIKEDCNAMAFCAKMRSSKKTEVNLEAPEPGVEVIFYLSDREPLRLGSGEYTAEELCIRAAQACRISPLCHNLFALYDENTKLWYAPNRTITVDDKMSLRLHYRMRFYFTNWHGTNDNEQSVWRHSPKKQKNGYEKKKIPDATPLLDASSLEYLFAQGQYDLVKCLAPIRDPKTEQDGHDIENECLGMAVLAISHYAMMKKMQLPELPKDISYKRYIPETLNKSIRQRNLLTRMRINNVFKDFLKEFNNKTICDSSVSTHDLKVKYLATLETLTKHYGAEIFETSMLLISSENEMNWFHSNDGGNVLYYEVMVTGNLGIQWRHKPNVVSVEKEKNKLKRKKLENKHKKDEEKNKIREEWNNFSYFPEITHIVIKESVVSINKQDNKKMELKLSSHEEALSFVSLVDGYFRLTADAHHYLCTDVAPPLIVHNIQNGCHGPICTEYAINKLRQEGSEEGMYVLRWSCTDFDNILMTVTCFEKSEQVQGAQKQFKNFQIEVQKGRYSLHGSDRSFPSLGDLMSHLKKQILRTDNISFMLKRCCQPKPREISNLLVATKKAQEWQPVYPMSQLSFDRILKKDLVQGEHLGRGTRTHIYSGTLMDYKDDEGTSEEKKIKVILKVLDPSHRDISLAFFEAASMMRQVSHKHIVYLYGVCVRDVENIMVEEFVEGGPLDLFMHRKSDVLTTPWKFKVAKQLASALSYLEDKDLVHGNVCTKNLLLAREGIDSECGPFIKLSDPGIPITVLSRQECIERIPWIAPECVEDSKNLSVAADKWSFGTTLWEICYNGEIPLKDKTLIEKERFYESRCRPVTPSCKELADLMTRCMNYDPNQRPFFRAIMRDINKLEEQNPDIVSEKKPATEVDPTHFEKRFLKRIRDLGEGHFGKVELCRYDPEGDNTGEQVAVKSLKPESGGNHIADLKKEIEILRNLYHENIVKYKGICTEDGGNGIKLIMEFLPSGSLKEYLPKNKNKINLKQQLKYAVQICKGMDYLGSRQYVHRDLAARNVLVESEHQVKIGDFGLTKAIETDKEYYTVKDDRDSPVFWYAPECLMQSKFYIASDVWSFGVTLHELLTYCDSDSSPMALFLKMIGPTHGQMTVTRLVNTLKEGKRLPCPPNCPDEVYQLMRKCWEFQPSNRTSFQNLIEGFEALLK
row,IC50 [nM],SMILES
1,≤ 10,"CN(c1ncnc2[nH]ccc12)C1CCC2(CC1)CCN(C(=O)Nc1ncc(C#N)s1)CC2 [Compound 133, N-(5-cyanothiazol-2-yl)-9-(methyl(7H-pyrrolo[2,3-d]pyrimidin-4-yl)amino)-3-azaspiro[5.5]undecane-3-carboxamide]"
2,100 to 1000,"Cc1cnc(NC(=O)N2CCC3(CCC(N(C)c4ncnc5[nH]ccc45)CC3)CC2)s1 [Compound 126, 9-(methyl(7H-pyrrolo[2,3-d]pyrimidin-4-yl)amino)-N-(5-methylthiazol-2-yl)-3-azaspiro[5.5]undecane-3-carboxamide]"
3,10 to 100,"CNC(=O)N1CCC2(CCC(N(C)c3ncnc4[nH]ccc34)CC2)CC1 [Compound 110, N-methyl-9-(methyl(7H-pyrrolo[2,3-d]pyrimidin-4-yl)amino)-3-azaspiro[5.5]undecane-3-carboxamide]"
4,10 to 100,"CN(c1ncnc2[nH]ccc12)C1CC2(C1)CN(C(=O)c1cccc(F)c1F)C2 [Compound 55, (2,3-difluorophenyl)(6-(methyl(7H-pyrrolo[2,3-d]pyrimidin-4-yl)amino)-2-azaspiro[3.3]heptan-2-yl)methanone]"
5,≤ 10,"CN(c1ncnc2[nH]ccc12)C1CCC2(CC1)CCN(C(=O)Nc1cccc(C#N)c1)CC2 [Compound 122, N-(3-cyanophenyl)-9-(methyl(7H-pyrrolo[2,3-d]pyrimidin-4-yl)amino)-3-azaspiro[5.5]undecane-3-carboxamide]"
6,10 to 100,"Cc1cc(C(=O)N2CC3(CC(N(C)c4ncnc5[nH]ccc45)C3)C2)c(F)cc1C#N [Compound 54, 5-fluoro-2-methyl-4-(6-(methyl(7H-pyrrolo[2,3-d]pyrimidin-4-yl)amino)-2-azaspiro[3.3]heptane-2-carbonyl)benzonitrile]"
7,≤ 10,"CN(c1ncnc2[nH]ccc12)C1CC2(C1)CN(C(=O)c1ccc(C#N)c(Cl)c1Cl)C2 [Compound 60, 2,3-Dichloro-4-{6-[methyl-(7H-pyrrolo[2,3-d]pyrimidin-4-yl)-amino]-2-aza-spiro[3.3]heptane-2-carbonyl}-benzonitrile]"
8,≤ 10,"COc1cccc(NC(=O)N2CCC3(CCC(N(C)c4ncnc5[nH]ccc45)CC3)CC2)c1 [Compound 120, N-(3-methoxyphenyl)-9-(methyl(7H-pyrrolo[2,3-d]pyrimidin-4-yl)amino)-3-azaspiro[5.5]undecane-3-carboxamide]"
9,≤ 10,"CN(c1ncnc2[nH]ccc12)C1CC2(C1)CN(C(=O)c1ccc(S(N)(=O)=O)cc1)C2 [Compound 71, 4-(6-(methyl(7H-pyrrolo[2,3-d]pyrimidin-4-yl)amino)-2-azaspiro[3.3]heptane-2-carbonyl)benzenesulfonamide]"
10,10 to 100,"COCC(=O)N1CCC2(CCC(N(C)c3ncnc4[nH]ccc34)CC2)CC1 [Compound 72, 2-methoxy-1-(9-(methyl(7H-pyrrolo[2,3-d]pyrimidin-4-yl)amino)-3-azaspiro[5.5]undecan-3-yl)ethan-1-one]"
11,100 to 1000,"CN(c1ncnc2[nH]ccc12)C1CCC2(CC1)CCN(C(=O)Nc1ncc(Cl)s1)CC2 [Compound 132, N-(5-chlorothiazol-2-yl)-9-(methyl(7H-pyrrolo[2,3-d]pyrimidin-4-yl)amino)-3-azaspiro[5.5]undecane-3-carboxamide]"
12,≤ 10,"CN(c1ncnc2[nH]ccc12)C1CC2(C1)CN(C(=O)c1ccc(F)c(C#N)c1F)C2 [Compound 61, 2,6-Difluoro-3-{6-[methyl-(7H-pyrrolo[2,3-d]pyrimidin-4-yl)-amino]-2-aza-spiro[3.3]heptane-2-carbonyl}-benzonitrile]"
13,≤ 10,"CN(c1ncnc2[nH]ccc12)C1CC2(C1)CN(C(=O)c1cc(C#N)cc(F)c1F)C2 [Compound 63, 3,4-Difluoro-5-{6-[methyl-(7H-pyrrolo[2,3-d]pyrimidin-4-yl)-amino]-2-aza-spiro[3.3]heptane-2-carbonyl}-benzonitrile]"
14,10 to 100,"COc1ccc(NC(=O)N2CCC3(CCC(N(C)c4ncnc5[nH]ccc45)CC3)CC2)cc1 [Compound 119, N-(4-methoxyphenyl)-9-(methyl(7H-pyrrolo[2,3-d]pyrimidin-4-yl)amino)-3-azaspiro[5.5]undecane-3-carboxamide]"
15,10 to 100,"CN(c1ncnc2[nH]ccc12)C1CC2(C1)CN(C(=O)c1cc(F)c(C#N)cc1F)C2 [Compound 51, 2,5-difluoro-4-(6-(methyl(7H-pyrrolo[2,3-d]pyrimidin-4-yl)amino)-2-azaspiro[3.3]heptane-2-carbonyl)benzonitrile]"
16,≤ 10,"CN(c1ncnc2[nH]ccc12)C1CC2(C1)CN(C(=O)c1ccc(F)c(C#N)c1)C2 [Compound 57, 2-Fluoro-5-{6-[methyl-(7H-pyrrolo[2,3-d]pyrimidin-4-yl)-amino]-2-aza-spiro[3.3]heptane-2-carbonyl}-benzonitrile]"

row,IC50 [nM],SMILES
1,≤ 10,[2H]C([2H])([2H])N(c1ncnc2[nH]ccc12)C1CC2(C1)CN(C(=O)c1ccc(C#CC)c(F)c1)C2 [Compound 66]
2,≤ 10,"CN(c1ncnc2[nH]ccc12)C1CCC2(CC1)CCN(C(=O)COc1cc(F)cc(C#N)c1)CC2 [Compound 114, 3-fluoro-5-(2-(9-(methyl(7H-pyrrolo[2,3-d]pyrimidin-4-yl)amino)-3-azaspiro[5.5]undecan-3-yl)-2-oxoethoxy)benzonitrile]"
3,≤ 10,"CN(c1ncnc2[nH]ccc12)C1CCC2(CC1)CCN(C(=O)Nc1cccc(C#N)n1)CC2 [Compound 123, N-(6-cyanopyridin-2-yl)-9-(methyl(7H-pyrrolo[2,3-d]pyrimidin-4-yl)amino)-3-azaspiro[5.5]undecane-3-carboxamide]"
4,≤ 10,"[2H]C([2H])([2H])N(c1ncnc2[nH]ccc12)C1CC2(C1)CN(C(=O)c1ccc(C#C)c(F)c1)C2 [Compound 64, (4-Ethynyl-3-fluoro-phenyl)-{6-[(methyl-d3)-(7H-pyrrolo[2,3-d]pyrimidin-4-yl)-amino]-2-aza-spiro[3.3]hept-2-yl}-methanone]"
5,10 to 100,"CN(c1ncnc2[nH]ccc12)C1CCC2(CC1)CCN(C(=O)COc1cccc(C#N)c1)CC2 [Compound 116, 3-(2-(9-(methyl(7H-pyrrolo[2,3-d]pyrimidin-4-yl)amino)-3-azaspiro[5.5]undecan-3-yl)-2-oxoethoxy)benzonitrile]"
6,≤ 10,"COc1nsc(NC(=O)N2CC3(CC(N(C)c4ncnc5[nH]ccc45)C3)C2)n1 [Compound 70, N-(3-methoxy-1,2,4-thiadiazol-5-yl)-6-(methyl(7H-pyrrolo[2,3-d]pyrimidin-4-yl)amino)-2-azaspiro[3.3]heptane-2-carboxamide]"
7,10 to 100,"CN(c1ncnc2[nH]ccc12)C1CCC2(CC1)CCN(C(=O)Nc1ncc(F)s1)CC2 [Compound 131, N-(5-fluorothiazol-2-yl)-9-(methyl(7H-pyrrolo[2,3-d]pyrimidin-4-yl)amino)-3-azaspiro[5.5]undecane-3-carboxamide]"
8,≤ 10,"CN(c1ncnc2[nH]ccc12)C1CC2(C1)CN(C(=O)c1cc(F)cc(C#N)c1)C2 [Compound 58, 3-Fluoro-5-{6-[methyl-(7H-pyrrolo[2,3-d]pyrimidin-4-yl)-amino]-2-aza-spiro[3.3]heptane-2-carbonyl}-benzonitrile]"
9,1000 to 10000,"CN(c1ncnc2[nH]ccc12)C1CCC2(CC1)CCN(C(=O)CCS(N)(=O)=O)CC2 [Compound 113, 3-(9-(methyl(7H-pyrrolo[2,3-d]pyrimidin-4-yl)amino)-3-azaspiro[5.5]undecan-3-yl)-3-oxopropane-1-sulfonamide]"
10,10 to 100,[2H]C([2H])([2H])N(c1ncnc2[nH]ccc12)C1CC2(C1)CN(C(=O)c1ccc(C#N)c(F)c1)C2 [Compound 65]
11,≥ 10000,"CCN(CC)S(=O)(=O)N1CCC2(CCC(N(C)c3ncnc4[nH]ccc34)CC2)CC1 [Compound 111, N,N-diethyl-9-(methyl(7H-pyrrolo[2,3-d]pyrimidin-4-yl)amino)-3-azaspiro[5.5]undecane-3-sulfonamide]"
12,≤ 10,"CN(c1ncnc2[nH]ccc12)C1CCC2(CC1)CCN(C(=O)Nc1nccs1)CC2 [Compound 134, 9-(methyl(7H-pyrrolo[2,3-d]pyrimidin-4-yl)amino)-N-(thiazol-2-yl)-3-azaspiro[5.5]undecane-3-carboxamide]"
13,10 to 100,"CN(c1ncnc2[nH]ccc12)C1CCC2(CC1)CCN(C(=O)c1ccc(S(N)(=O)=O)cc1)CC2 [Compound 112, 4-(9-(methyl(7H-pyrrolo[2,3-d]pyrimidin-4-yl)amino)-3-azaspiro[5.5]undecane-3-carbonyl)benzenesulfonamide]"
14,10 to 100,"CN(c1ncnc2[nH]ccc12)C1CCC2(CC1)CCN(C(=O)COc1ccc(C#N)c(F)c1)CC2 [Compound 117, 2-fluoro-4-(2-(9-(methyl(7H-pyrrolo[2,3-d]pyrimidin-4-yl)amino)-3-azaspiro[5.5]undecan-3-yl)-2-oxoethoxy)benzonitrile]"
15,100 to 1000,"CN(c1ncnc2[nH]ccc12)C1CCC2(CC1)CCN(C(=O)Nc1ccn(C)n1)CC2 [Compound 127, 9-(methyl(7H-pyrrolo[2,3-d]pyrimidin-4-yl)amino)-N-(1-methyl-1H-pyrazol-3-yl)-3-azaspiro[5.5]undecane-3-carboxamide]"
16,≤ 10,"CN(c1ncnc2[nH]ccc12)C1CC2(C1)CN(C(=O)c1c(F)cc(C#N)cc1F)C2 [Compound 56, 3,5-difluoro-4-(6-(methyl(7H-pyrrolo[2,3-d]pyrimidin-4-yl)amino)-2-azaspiro[3.3]heptane-2-carbonyl)benzonitrile]"
